Reference: US8410137B2, “Thiophene-2-carboxamide derivatives, preparation thereof and therapeutic use thereof” (Sanofi, priority 2008, dated 2013)

Legend:
[1] = target: T1, CB1 receptors present in the brain (Mus musculus, UniProt P47746); test: Measurement (2): ex vivo [3H]-CP55940 binding assay in mouse brain after intravenous administration; conditions: iv at 10 mg/kg, read-out: % of inhibition of the binding of [3H]-CP55940 with regard to the CB1 receptors present in the brain
T1 construct: from tissue; host or cells: whole animal (brain CB1 receptors, in vivo)

[2] = target: T1, CB1 receptors present in the brain; test: Measurement (3): blocking of the hypothermic effect induced by CP55940; type: in vivo; conditions: iv at 10 mg/kg
[3] = Measurement (1): quantification of unchanged compound in mouse brain samples by LC-MS/MS, brain/plasma ratio; type: in vivo; conditions: iv at 3 mg/kg, read-out: Ratio: amount present in the brain/amount present in the plasma
Protocol: The low penetration of the compounds of formula (I) at the haematoencephalic barrier (HEB) was evaluated in vivo by: • Measurement (1): the quantification of the compounds of formula (I) (unchanged) in mouse brain samples after intravenous (iv, 3 mg/kg) or oral administration, using the LC-MS/MS analytical technique. • The

T1 sequence (P47746 whole entry): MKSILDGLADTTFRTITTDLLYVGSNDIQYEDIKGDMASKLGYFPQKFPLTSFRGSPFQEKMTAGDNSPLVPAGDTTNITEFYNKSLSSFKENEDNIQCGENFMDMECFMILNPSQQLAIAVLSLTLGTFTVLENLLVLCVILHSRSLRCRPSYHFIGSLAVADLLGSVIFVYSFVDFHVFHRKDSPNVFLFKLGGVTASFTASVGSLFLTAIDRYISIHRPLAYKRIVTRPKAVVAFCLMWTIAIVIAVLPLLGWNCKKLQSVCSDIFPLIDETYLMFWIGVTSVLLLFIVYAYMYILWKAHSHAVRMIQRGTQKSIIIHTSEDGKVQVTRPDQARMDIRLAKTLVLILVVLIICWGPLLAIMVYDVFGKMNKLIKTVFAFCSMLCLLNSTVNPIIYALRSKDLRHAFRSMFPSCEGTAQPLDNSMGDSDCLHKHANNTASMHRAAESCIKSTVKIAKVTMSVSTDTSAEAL

inhibition at 10 mg/kg [1] [%] | % of reversion of the hypothermic effect of CP55940 with regard to the CB1 receptors present in the brain [2] [%] | Kp [3] | Structure (SMILES)
13 | 17.5 | 0.04 | NC(=O)C1(c2ccccc2)CCN(C(=O)c2cc(-c3ccc(OCCCO)cc3)c(-c3ccc(Cl)cc3Cl)s2)CC1 [compound 8, 1-({5-(2,4-dichlorophenyl)-4-[4-(3-hydroxypropoxy)phenyl]-2-thienyl}carbonyl)-4-phenylpiperidine-4-carboxamide]
32 | 35.5 |  | NC(=O)C1(c2ccccc2)CCN(C(=O)c2cc(-c3ccc(OCCCO)cc3)c(-c3ccccc3Cl)s2)CC1 [compound 45, 1-({5-(2-chlorophenyl)-4-[4-(3-hydroxypropoxy)phenyl]thien-2-yl}carbonyl)-4-phenylpiperidine-4-carboxamide]
